Experiments:
[1] = test system: actin network of HeLa cells; test: Stability of the actin network to a depolymerization induced by latrunculin B; format: cell-based, Human; conditions: HeLa cells, confocal microscope
Method: 7. a step of analysis of the effect of the compound to be tested on the actin network, via incubation of HeLa cells with the compound to be tested. […] When the actin network is stabilized, the latrunculin-induced depolymerization of the actin network is limited.
The cells are grown on glass coverslips and incubated as for the tubulin staining. After elimination of the medium, the cells are washed with warm PBS then fixed, by addition of a solution of PBS/3.7% formaldehyde for 30 minutes at 37° C. The cells are washed with PBS then permeabilized with a solution of PBS/0.2% Triton X100 for 15 minutes at room temperature. After another washing with PBS, the cells are incubated with a solution of PBS/1% BSA for 30 minutes at room temperature. The cells are then incubated with phalloidin (0.165 μM final concentration) labelled with Alexa Fluor® 488 (Molecular Probes, Invitrogen) for 20 minutes at room temperature. The cells are washed a final time with PBS then dehydrated with pure ethanol. Finally, the cells are fixed to slides using a Fluorsave™ mounting solution.
8) Test for the Action on the Actin Cytoskeleton: Protocol for Evaluating, in Cells, the Stability of the Actin Network to a Depolymerization Induced by Latrunculin B
3 days before the experiment, glass coverslips are deposited under sterile conditions in 24-well microplates. In each well, HeLa cells (15 000 cells per well) in the exponential growth phase are seeded in 500 μl of RPMI medium.
PBS (phosphate buffered saline, ref. P4417, Sigma), PBS/1% BSA (bovine serum albumin, Ref. A3059, Sigma), aliquots of 15 ml, stored at −20° C.; PBS/0.2% Triton X100 (Ref. T8787, Sigma); PBS/0.01% Tween® 20 (Ref. P9916, Sigma); PBS/0.3% BSA/0.02% NaN3 (Ref. for the NaN3: 6688, Merck), aliquots of 15 ml stored at −20° C. Phalloidin A488, (Ref. A12379, Invitrogen). L4: rabbit anti-detyrosinated-tubulin polyclonal antibody (cf. Fonrose et al., Cancer Res., […], 67:3371-3378). Anti-rabbit antibody coupled to Cyanine 3 (Ref. 111.165.144, Jackson Laboratories). […]

purified tubulin = test: In vitro assembly of purified tubulin; format: biochemical; conditions: tubulin 1 mg/ml; Compound 1 at 25, 50, 100 μM
Method: FIG. 5 compares the effects of the Compound 1 of the invention with the effect of paclitaxel (Taxol®) on the assembly of the tubulin purified in vitro. Purified tubulin (1 mg/ml) is incubated in PEM buffer in the presence of GTP (1 mM), MgCl2 (5 mM), DAPI (10 μM) at 37° C. The effect of Compound 1 of the invention at various concentrations (×25 μM, ⊚ 50 μM and Δ 100 μM) is compared to that of paclitaxel (Taxol®) (▪) and of DMSO ( ? );
In order to know whether Compound 1 of the invention exerts its stabilizing effect via a direct action on tubulin, such as paclitaxel does, or by means an effector, its effect on the in vitro assembly of tubulin in microtubules has been analyzed. The first experiments were carried out on purified tubulin (1 mg/ml).

HeLa cells = test: Cell growth test (MTT), HeLa; format: cell-based; conditions: Homo sapiens, MTT test after 48 h, read-out: IC50 (concentration necessary to inhibit 50% of cell growth)
Method: (§1) The cell growth tests are carried out in transparent 96-well microplates (Greiner) after having seeded 100 μl/well of a cell solution having 2·10^5 cells/ml to 5·10^5 cells/ml (depending on the cell lines). After incubating for 24 h at 37° C. with 5% CO2, the culture medium is removed and replaced with solutions of the molecule to be tested at various concentrations. The cells are incubated with these molecules for an additional 48 h at 37° C. with 5% CO2. After elimination of the medium, the cells are washed with blank RPMI (Gibco, Invitrogen) then incubated with 3-(4,5-dimethylthiazol-2-yl)-2,5-diphenyltetrazolium bromide or MTT (0.5 mg/ml final concentration) for 4 h at 37° C. with 5% CO2. MTT (Sigma Aldrich) makes it possible to estimate the viability of the cells by measuring the activity of a mitochondrial enzyme. Indeed, in living cells, mitochondrial dehydrogenases are capable of cleaving the tetrazolium ring, thus leading to the formation of formazan crystals that are insoluble in an aqueous medium. These crystals are dissolved with the addition of a solubilizing solution (isopropanol, 10% Triton X100, 0.1 N HCl). After stirring, the absorbance is measured at 570 nm using the FLUOstar OPTIMA microplate reader. […]
(§2) The viability of the cells was evaluated using an MTT test after 48 h of exposure with various concentrations of molecules (from 100 μM to 0.001 μM). […]

NCI-H460 cells = test: Cell growth test (MTT), NCI-H460; format: cell-based; conditions: Homo sapiens; NCI-H460, MTT test after 48 h; read-out: IC50 (concentration necessary to inhibit 50% of cell growth)
Method: as §1, §2

786-O cells = test: Cell growth test (MTT), 786-O; format: cell-based; conditions: Homo sapiens, 786-0, MTT test after 48 h, read-out: IC50 (concentration necessary to inhibit 50% of cell growth)
Method: as §1, §2

MES-SA cells = test: Cell growth test (MTT), MES-SA; format: cell-based; conditions: Homo sapiens, MTT test after 48 h, read-out: IC50 (concentration necessary to inhibit 50% of cell growth)
Method: as §1, §2

MES-SA DX5 cells = test: Cell growth test (MTT), MES-SA DX5; format: cell-based; conditions: Homo sapiens; MES-SA DX5 (multi-drug resistant, P-glycoprotein), MTT test after 48 h; read-out: IC50 (concentration necessary to inhibit 50% of cell growth)
Method: as §1, §2

SMILES	Protection of the actin network from depolymerization by latrunculin B [1]	Assembly of purified tubulin in vitro (purified tubulin)	IC50 (HeLa cells)	IC50 (NCI-H460 cells)	IC50 (786-O cells)	IC50 (MES-SA cells)	IC50 (MES-SA DX5 cells)
CC(=O)O[C@H]1C(=O)[C@@]2(C)[C@H]([C@H](OC(=O)c3ccccc3)[C@]3(O)C[C@H](OC(=O)[C@H](O)[C@@H](NC(=O)c4ccccc4)c4ccccc4)C(C)=C1C3(C)C)[C@]1(OC(C)=O)CO[C@@H]1C[C@@H]2O [paclitaxel, reference compound]	Neither DMSO nor paclitaxel (Taxol®) are able to induce such a protective effect	can induce the assembly of tubulin	–	–	–	–	–
Cc1c2cc[nH]c(=O)c2c(C)c2c1[nH]c1ccc(OCc3ccccc3)cc12 [Compound 3, 9-benzyloxy-5,11-dimethyl-2H,6H-pyrido[4,3-b]carbazol-1-one]	–	–	3.05 µM	1.52 µM	3.34 µM	33.9 µM	13.9 µM

Reference: patent US8604048B2, “Pyridocarbazole type compounds and applications thereof” (Centre National de la Recherche Scientifique, priority 2009, dated 2013)
